In patent publication US11390626B2, “Pyrazolopyrimidine modulators of RAS GTPase” (Tosk, Inc., priority 2019, dated 2022):
pIC50: −log10 of the molar value. Entries after “also recorded” stand apart in the source; their conditions may differ. Read-outs that look alike come from different tables or passages of the source.

Experiments:
[1] = tested on: Drosophila melanogaster flies with human G12V kRAS expressed in the wing; experiment: Fly screen: reversal of crinkled wing phenotype; assay type: in vivo
Source text: The Tosk approach uses Drosophila melanogaster flies as media for initial screening for RAS modulating compounds. Tosk has created a fruit fly with human kRAS G12V expressed in its wing. The mutant kRAS expressed in the fly wing appears functional, even though it operates in the presence of the other physiological systems present in the fly. The fly phenotype in the mutant fly is a crimped wing which can be reversed to a great extent if the fly is fed food enriched with an effective kRAS inhibitor. The fly kRAS suppressor screen can provide a more predictive model compared to conventional discovery methods because the kRAS is in its natural (i.e., not artificial/isolated/manipulated) environment anchored to the plasma membrane, positioned correctly, and surrounded by appropriate neighboring chemicals. Several reports have emphasized the importance of kRAS positioning and environment to realize protein activity.
2. Fly with Crinkled Wing Phenotype.
1. Production of Fly Food/Test Article Mix. A Biomek 2000 robotic arm is used to pipet 40 μL of a 10 mM DMSO solution of Test Article into a 35 mL polypropylene Drosophila fly vial (VWR 89092-728) containing 10 mL ETOH. A half teaspoon blue fly food (4-24, Carolina Biological Supply), is added and the tubes are vortexed and placed into a HT-4X GeneVac to remove the DMSO and ETOH. The tube is vortexed, 4 ml water added, and vortexed again. Control samples are tubes with fly food prepared with just 40 μL DMSO, no Test Article, or 40 μL of a DMSO solution containing 50 μM of the trametanib positive control. 2. Screen. Several hundred male G12V kRAS flies and several hundred GAL4 females are placed in a custom Plexiglas population cage (12″×12″×8″) made fly condo containing grape agar and yeast paste prepared using a published protocol. Embryos from the container are washed off the grape agar onto a sieve and re-suspended in an aqueous sucrose/salt/triton solution. An aliquot of this solution is analyzed using a dissecting microscope to determine the embryo concentration. The appropriate solution to deliver 150 embryos is then added to the fly food/Test article vials. The vial is capped with a cellulose fly bottle plug. […] The vials are incubated at 23° C. in a temperature-controlled room for 12 days. 3. Analysis. After 12 days, all flies in a vial are observed under a microscope following CO2 anesthesia for the number of phenotype reversals compared to the total number of viable flies. Cell culture testing is typically performed for any Test Article showing evidence of >25% phenotype reversal. The trametinib positive control provides reversal of the crimped/crinkled phenotype for 50-75% of the flies.
A library of over 16,000 distinct chemicals was purchased from ChemDiv, San Diego, Calif. All the compounds were evaluated in the fly screen described above for the ability to reverse the crinkled wing phenotype. […] One of the three compounds was Structure 1.

phosphorylated AKT = experiment: Phosphorylated AKT western blot in SW1990 cells; assay type: cell-based, human; conditions: 24 hours with compound, EGF 10 ng/mL 15 minutes, FIG. 2
Description: (§1) Structure 1 decreased both phosphorylated AKT and phosphorylated ERK. Structure 1 had no effect on AKT or ERK (data not shown).
(§2) A method used to measure ERK and AKT is based on Welsch et al, Cell 168: 878-889 February 2017. SW1990 cells, growth driven by a G12D kRAS mutation and derived from human, pancreatic cancer cells, are plated in a 6-well plate at 1.5×10^6 cells per plate and grown overnight at 37° C. Media is replaced with serum-free media and the plate incubated an additional 24 hours. Media is replaced with media with or without compound and incubated for an additional 24 hours. EGF is added at a concentration of 10 ng/mL. After 15 minutes, cells are washed with ice cold PBS and lysed with RIPA buffer.
(§3) The lysate is processed by electrophoresis using a Mini-PROTEAN® gel mounted in a Mini-PROTEAN® Tetra Cell (cassette). Both the gel and the holding assembly (cassette) are purchased from BIORAD. The gel in the assembly is placed, electrode up, in the buffer tanks. The Tris/glycine/SDS buffer is added to both the inner buffer chamber (200 mL) and the outer buffer chamber (800 mL). […]
(§4) The membrane is placed into TTBS buffer containing SuperBlock T20 (Thermo Scientific) and incubated for 1 hour at room temperature. […] The anti pERK detected both pERK 1 and 2 (T202/Y204). […]

[2] = tested on: SW620 human cancer cells (G12V kRAS); experiment: Cytotoxicity assay (CellTiter-Glo 2.0, 72 hours); assay type: cell-based
Description: FIG. 1, Cytotoxicity of exemplary compound (Structure 1) on SW620 human cancer cells. The cytotoxicity of compounds of interest are tested against the human colon cancer cell line SW620 as described in the experimental section. SW620 cells express a mutant G12V kRAS. Compounds are incubated with cells for 72 hours and the assay developed using Cell Titer Glo 2.0. IC50 values are determined using GraphPad Prism4.
Structure 1 was assayed for inhibition of cell proliferation and killing cancer cells. Cytotoxicity assays were conducted according to the following general procedure. SW620, SW1990, etc, were all maintained in Leibowitz L15 media supplemented with 10% fetal bovine serum and 1% PenStrep and grown in a 37° C. incubator without supplemental CO2. Cells were plated into 96 well flat bottom plates (2 million/plate, ˜20,000/well, 200 μLmedia/well). The cells were allowed to settle and adhere to plate bottom overnight.
Compounds were diluted in media from a 10 mM stock solution starting at 50 μM, using 2-fold dilutions, in a column in a 96-well plate. Media was removed from the plate containing cells and replaced with media containing diluted compounds. Plates were incubated 72 hours at 37° C. with no supplementary CO2. […] Luminescence was read with a FLx800 (BioTek Instruments). […]

non-phosphorylated ERK = experiment: Non-phosphorylated ERK western blot in SW1990 cells; assay type: cell-based, human; conditions: data not shown
Description: as §1, §2, §3, §4

## Cc1nc2c(-c3ccccc3)c(C)nn2c(NCc2ccccn2)c1Cc1ccccc1 [Structure 1]
[1]; Experiment 1, 20 μM in fly food
  Flies with Reversed Phenotype: 75%
[1]; Experiment 1, 75% versus 29%
  Flies with phenotype reversals relative to positive control trametinib: over 2.5 fold
[1]; Experiment 2, 20 μM in fly food
  Flies with Reversed Phenotype: 58%
[1]; screen of over 16,000 ChemDiv compounds, ~100 μM in fly food, 12 days
  Ability to reverse the crinkled wing phenotype in library screen: reliably reversed the phenotype
Phosphorylated AKT
  Effect on phosphorylated AKT: decreased; also recorded: suppressed
[2]; SW-620, Cell Titer Glo 2.0, read-out: IC50, cytotoxicity on SW620 human cancer cells (FIG. 1 legend)
  pIC50: 5.41
[2]; SW-620, CellTiter-Glo 2.0, read-out: IC50 in the SW620 cells
  pIC50: 5.41
non-phosphorylated ERK
  Effect on non-phosphorylated ERK: no effect; also recorded: without affecting
